Where a SMILES comes first, the peptide text is derived from it. Where no end group is shown, it is not given here. [ ]: non-standard residue; d: D form. Cit = NC(=O)NCCC[C@H](N)C(=O)O
Legend:
[1] = target: T1, HLA-DR4 (DRB1*04:01) (Homo sapiens, UniProt P01903+P01911, A100K/A169T/F76Y/I96L/K127E/L162R/M171V/N62H/P40V/Q125Y/R42H/S133A/S149N/S66Y/V115G/V209L/W38E); assay: Competitive peptide binding assay to soluble HLA-DR4; conditions: for IC50: competition with 0.5 nM biotinylated CII(257–274), 10 nM soluble DR4, 18 h at 37° C
T1 construct: a new stop codon was inserted immediately prior to the transmembrane domain; made in house; host or cells: Drosophila S2 cells, vector pRmHA-3, secreted, purified on an L227 antibody column
Description: (§1) Soluble DR1 and DR4 were purified from culture supernatants of S2 drosophila cells transfected with DRB1*0101 or DRB1*0401 and DRA1*0101 as described previously. The cytoplasmic and transmembrane portions of these molecules were deleted from the cDNA using PCR, a new stop codon was inserted immediately prior to the transmembrane domain, and the resulting cDNA was cloned into the drosophila expression vector pRmHA-3. S2 cells were transfected with a 10:10:1 ratio of DRB1:DRA1:pUChsNeo using calcium phosphate precipitation. Soluble DR production was induced by 1 mM CuSO4, and 5 days later the culture supernatant was collected and adjusted to 0.05% octyl glucoside (OcG). Soluble DR was purified by passage of the supernatant over an affinity column coupled with the anti-DR antibody L227. The column was washed with 0.05% OcG and 0.15 M NaCl in phosphate buffer (PB), pH 7.5, followed by 0.05% OcG and 0.5M NaCl in PB, pH 7.5. DR was eluted with 100 mM Tris, 0.5M NaCl, pH 11.2, and the fractions were immediately neutralized with acetic acid. Recovered DR protein was concentrated using an EMD Millipore stirred cell with a YM30 disc membrane (Beverly, MA) and quantitated by OD 280 nm absorption and SDS-PAGE prior to use.
(§2) For binding assays, a 10 nM solution of purified DR1 or DR4 was incubated for 18 h at 37° C with CII(257–274) peptide (0.5 nM) that had been labeled at the NH2 terminus with biotin as previously described. Various concentrations of peptides were added as competitors to the CII peptide binding. Bound peptides were separated from free peptides by immobilizing the DR molecules on microtiter plates coated with the monoclonal antibody L227 and subsequent washing. The antibody was adhered to the plate by an overnight incubation of a 10 μg/ml solution at 4° C. Bound biotinylated peptides were detected by incubation with streptavidin-europium followed by a chelating enhancement solution. Time resolved fluorescence was quantitated using a microplate fluorometer (FluoroMark, Bio-Rad, Hercules, CA), and data are expressed as relative fluorescence units measured. The 50% inhibitory concentration values (IC50) values were calculated from the binding curves and graphed as 1/IC50 to indicate affinity relative to the control peptide. Each binding assay was performed in duplicate, and data are representative of 3 experiments.
(§3) Fig 2 Measurement of peptide binding to DRB1*04:01. 10 nM of soluble DR4 was incubated for 18 h at 37° C with 0.5 nM of biotinylated CII(257–274) peptide and various concentrations of WT and Cit-peptides as competitors. Bound peptides were separated from free peptides by immobilizing the DR molecules with an antibody on microtiter plates. Bound biotinylated peptide was detected by incubation with streptavidin-europium. Time resolved fluorescence was quantitated and data are expressed as relative fluorescence units measured. Each binding assay was performed in duplicate, and data are representative of 3 experiments.

[2] = target: T2, HLA-DR1 (DRB1*01:01) (Homo sapiens, UniProt P01903+P01911, A100R/D57E/F55L/F60I/F76Y/I96L/L162R/M171V/P40L/Q125E/R42F/V115G/Y59C); assay: Competitive peptide binding assay to soluble HLA-DR1; conditions: competition with 0.5 nM biotinylated CII(257–274), 10 nM soluble DR1, 18 h at 37° C, time resolved fluorescence; duplicate, representative of 3 experiments
T2 construct: a new stop codon was inserted immediately prior to the transmembrane domain; made in house; host or cells: Drosophila S2 cells, vector pRmHA-3, secreted, purified on an L227 antibody column
Description: as §1, §2
as §3, with “Fig 1” for “Fig 2”, “to DRB1*01:01.” for “to DRB1*04:01.”, “soluble DR1” for “soluble DR4”

[3] = system: lymph node T cells from B6.DR1 mice; assay: Cytokine production by WT or Cit-peptide stimulated T cells (multiplexed bead assay); type: cell-based, mouse; set-up: key to Cytokine WT/Cit Ratio, TNFα: “–” values the result of no cytokine detected from the Cit-Ag or both antigens; conditions: T cells of mice immunized with the immunogen, calculated from Fig 5; for Cytokine WT/Cit Ratio, TNFα: WT over Cit stimulation, “>” = no TNFα produced by Cit-Ag stimulation; for Cytokine WT/Cit Ratio, IFNγ / Cytokine WT/Cit Ratio, IL-6 / Cytokine WT/Cit Ratio, IL-10 / Cytokine WT/Cit Ratio, IL-17A: WT-stimulated over Cit-stimulated, supernatant 3 days
Description: Cytokines produced by WT and Cit-peptide stimulated T cells were measured using a multiplexed bead assay (BioRad) and analyzed using a BioRad MagPix. B6.DR1 mice were immunized with WT or Cit-peptide, and 10 days later LN cells were recovered and re-stimulated with the corresponding WT peptide or Cit-peptide. Supernatants were collected 3 days after stimulation and assayed for expression of IFNγ, TNFα, IL-10, IL-17A, and IL-6. Standard curves were used to calculate cytokine concentration. Data are representative of two independent experiments and based on duplicate samples.
Fig 5 Cytokine production by T cells stimulated with WT or Cit-peptides. Supernatants from T cell proliferation assays in Fig 4 were collected 3 days after antigen stimulation and analyzed for the expression of proinflammatory cytokines. Cytokines produced were measured using a multiplexed bead assay and analyzed using a BioRad MagPix. Standard curves were used to calculate cytokine concentration. The cytokines produced by CII immunized T cells stimulated with the immunodominant epitope, CII(257–274), that drives autoimmune arthritis in the B6.DR1 model are shown for comparison (right panels). Data are representative of two independent experiments and based on duplicate samples.

[4] = system: B6.DR1 (HLA-DRB1*01:01 transgenic) mice; assay: Induction of autoimmune arthritis in HLA-DR1 transgenic mice; type: in vivo, mouse
Description: Citrullinated CII (Cit-CII) was produced using the method described by Lundberg et al. and Burkhardt et al.. 4 ml of CII at 0.25 mg/ml was dialyzed against citrullination buffer (0.1 M Tris-HCl pH 7.6, 10 mM CaCl2, 5 mM DTT), and 6.7 μl (8.5 μg, 33.4 U) of PAD4 (human recombinant, Cayman Chemical) was used to induce citrullination. Sham Cit-CII was produced using the same procedure without the PAD4 enzyme.
For arthritis induction and T cell proliferation assays, 8 to 10 week old mice were immunized subcutaneously at the base of the tail with 100 μg of peptide or bovine CII emulsified in equal volumes of CFA consisting of 85% heavy paraffin oil (Fisher Scientific), 15% mannide mono-oleate (Sigma), and 4 mg/ml of heat killed mycobacterium (H37Ra, Difco). For arthritis studies, mice were examined 3 times per week starting at day 18 after immunization and the presence of arthritis, number of affected limbs, and the severity were assessed. Severity of disease was evaluated by visual inspection and assigned a score using a scale of 0 to 4 based on the degree of inflammation as described.
Fig 8 Induction of autoimmune arthritis in HLA-DR1 mice with WT CII and Cit-CII. B6.DR1 mice were immunized with native CII or Cit-CII and the incidence (panel A) and severity (panels B, C, and D) of arthritis were monitored. […]

**Q.** For `CC(C)C[C@H](NC(=O)[C@H](CC(C)C)NC(=O)[C@@H](NC(=O)[C@@H](N)C(C)C)C(C)C)C(=O)N[C@H](C(=O)N[C@@H](C)C(=O)N[C@H](C(=O)N[C@@H](CCC(=O)O)C(=O)NCC(=O)N[C@@H](CCCNC(N)=O)C(=O)N[C@H](C(=O)N[C@@H](CCCNC(=N)N)C(=O)N[C@H](C(=O)N[C@@H](CC(N)=O)C(=O)N[C@@H](CO)C(=O)N[C@@H](C)C(=O)N[C@@H](Cc1ccc(O)cc1)C(=O)N[C@@H](CCC(N)=O)C(=O)N[C@@H](CC(=O)O)C(=O)N[C@@H](CCCCN)C(=O)O)C(C)C)C(C)C)[C@@H](C)O)C(C)C` [cit-Agg] (H-VVLLVATEG[Cit]VRVNSAYQDK-OH), which IC50 [1] is on record?
**A.** The IC50 was > 5000 nM.

**Q.** And the IC50 [2]?
**A.** The IC50 was 82.6 nM.

**Q.** What does the source list for `CSCC[C@H](NC(=O)[C@H](Cc1ccc(O)cc1)NC(=O)[C@H](CCC(N)=O)NC(=O)[C@@H](N)CC(C)C)C(=O)N[C@@H](CCCNC(N)=O)C(=O)N[C@@H](C)C(=O)N[C@@H](CC(=O)O)C(=O)N[C@@H](CCC(N)=O)C(=O)N[C@@H](C)C(=O)N[C@@H](C)C(=O)NCC(=O)NCC(=O)N[C@@H](CC(C)C)C(=O)N[C@@H](CCCNC(=N)N)C(=O)O` [cit-CII] (H-LQYM[Cit]ADQAAGGLR-OH)?
**A.** IC50 [1]: 170 nM; IC50 [2]: 121 nM

**Q.** What does the source list for `CC[C@H](C)[C@H](NC(=O)[C@H](CCCNC(N)=O)NC(=O)[C@H](CC(N)=O)NC(=O)[C@@H](NC(=O)[C@H](Cc1ccccc1)NC(=O)[C@H](CC(=O)O)NC(=O)[C@H](CCC(N)=O)NC(=O)[C@@H](N)CC(N)=O)[C@@H](C)O)C(=O)N[C@@H](CC(N)=O)C(=O)N[C@@H](CCCCN)C(=O)N[C@@H](CC(C)C)C(=O)N[C@@H](CCCCN)C(=O)N[C@@H](CC(N)=O)C(=O)N[C@@H](CO)C(=O)O` [cit-Fib] (H-NQDFTN[Cit]INKLKNS-OH; N-terminus and C-terminus assumed)?
**A.** IC50 [2]: > 4500 nM; Cytokine WT/Cit Ratio, TNFα [3]: –; Cytokine WT/Cit Ratio, IFNγ [3]: 0.2; Cytokine WT/Cit Ratio, IL-6 [3]: 0.9; Cytokine WT/Cit Ratio, IL-10 [3]: 0.3; Cytokine WT/Cit Ratio, IL-17A [3]: 1.0

**Q.** With `CC(C)C[C@H](NC(=O)[C@H](CCCNC(=N)N)NC(=O)[C@@H](NC(=O)[C@H](C)NC(=O)[C@@H](N)CO)C(C)C)C(=O)N[C@@H](CCCNC(N)=O)C(=O)N[C@@H](CO)C(=O)N[C@@H](CO)C(=O)N[C@H](C(=O)N1CCC[C@H]1C(=O)NCC(=O)N[C@H](C(=O)N[C@@H](CCCNC(=N)N)C(=O)O)C(C)C)C(C)C` [cit-Vim] (H-SAVRL[Cit]SSVPGVR-OH) as the molecule, how does the IC50 [2] read?
**A.** Its IC50 is 1.1 nM.

**Q.** With LQYMRADQAAGGLR [CII] as the molecule, how does the IC50 [1] read?
**A.** The IC50 was 37.4 nM.

**Q.** And the IC50 [2]?
**A.** The IC50 was 82.9 nM.

**Q.** What does the source list for NQDFTNRINKLKNS [Fib]?
**A.** binding to DR4 (in words) ([1]; up to 40,000:1 nM ratio of competitor:indicator peptide): essentially undetectable; IC50 [2]: > 4500 nM; Cytokine WT/Cit Ratio, TNFα [3]: 1.3; Cytokine WT/Cit Ratio, IFNγ [3]: 2.5; Cytokine WT/Cit Ratio, IL-6 [3]: 1.1; Cytokine WT/Cit Ratio, IL-10 [3]: 1.0; Cytokine WT/Cit Ratio, IL-17A [3]: 1.4

**Q.** With SAVRLRSSVPGVR [Vim] as the molecule, how does the IC50 [2] read?
**A.** The IC50 was 76.1 nM.

**Q.** With VVLLVATEGRVRVNSAYQDK [Agg] as the molecule, how does the IC50 [1] read?
**A.** The IC50 was > 5000 nM.

**Q.** What about the IC50 [2] of the same molecule?
**A.** Its IC50 is 110 nM.

**Q.** Which “induction of autoimmune arthritis” value ([4]; DR1 Tg mice immunized with 100 μg in CFA) does the source give for “citrullinated CII: native bovine type II collagen protein treated with PAD4 to convert Arg to Cit” here?
**A.** Its value is “induced autoimmune arthritis”.

**Q.** And the “severity of arthritis compared with WT CII” value ([4]; DR1 Tg mice, incidence, onset and severity score 0 to 4)?
**A.** The value was “no evidence that the disease was more severe than immunization with WT CII”.

Reference: publication PMC7815092, “The role of posttranslational modifications in generating neo-epitopes that bind to rheumatoid arthritis-associated HLA-DR alleles and promote autoimmune T cell responses” (PLoS ONE, 2021)
